The values below are quoted from earlier work in patent publication US20250032538A1, “METHOD AND COMPOSITION FOR RESTORING HOMEOSTASIS, TREATING, AND PREVENTING DEGENERATIVE DISEASES, ACHIEVING ANTI-AGING EFFECT” (Vector Vitale IP LLC, priority 2023, published 2025).

Read-outs that look alike come from different tables or passages of the source.

In series [1] the test system is rats.
The subject of series [2] is rats. The settings on record: rat, in vivo.

Turning to `[Cl-].[Cl-].[Cl-].[Sc+3]` [scandium (III) chloride], the results for the “half lethal dose (LD50)” value in the series with rats [1] (intraperitoneal) and with rats [1] (oral administration) were 4 mg/kg and 755 mg/kg, respectively.
Take Titanium dioxide: in the series with rats [2], the “carcinogenicity: lung tumors” value is “increased lung tumors”.
